{"source": "patent US9562082B2", "about": "“Production of glycoproteins with low N-glycolylneuraminic acid (Neu5Gc) content” (LEK Pharmaceuticals D.D., priority 2009, dated 2017)", "test_system": "Recombinant CHO cells", "assay": "Neu5Gc content of glycoprotein secreted by CHO cells cultivated with medium additives (RP-HPLC of DMB-labelled sialic acids)", "type": "cell-based, Chinese hamster", "excerpt": "Recombinant CHO cells expressing high titres of the glycosylated human glycoproteins were cultivated in suspension culture using rich in-house standard medium without additives according to the invention. After 2 weeks of passages, the cells were first harvested and subsequently inoculated into the same medium, however, supplemented with a range of DMSO concentrations from 0.25% to 1.50% (w/v). The effect of DMSO on growth, productivity, degree of sialylation, and Neu5Gc content was studied.\n“One factor at the time”-experiments with different DMSO concentrations at 37° C. and 33° C., respectively, were performed at first in an attempt to determine the DMSO concentration and temperature which are best to minimise the Neu5Gc content on the glycoproteins secreted. To study the interaction between the parameters (i) DMSO concentration, (ii) time of DMSO addition, and (iii) time of the temperature shift (from 37° C. to 33° C.), further experiments were performed with the Design-Expert/Design-Ease programme (Stat-Ease, Inc., Minneapolis, Minn., USA) using the response surface method. Parameters (i), (ii), and (iii) were chosen as numeric factors and the axial points were set slightly out of already known ranges in order to cover a wide design space. One replicate on axial points, one replicate on factorial points and 4 centre points were performed. The results were analysed using the Design of Expert (DOE) software (Design-Expert, Version 7.1). The results of the shake flask experiments were confirmed in the Biostat®B bioreactor (Sartorius, B. Braun Biotech International, Germany). Exponentially growing cells were taken from cell culture flasks having a surface area of 225 cm^2 (Corning®Costar®). A Biostat®B bioreactor with a working volume of 5 litres was inoculated with 2×10^5 cells/ml. Cells were cultivated in a batch mode under standard conditions (37° C., pH 7.0, dissolved oxygen concentration (DOT) 50%) in the rich in-house standard medium supplemented with 0.75% (w/v) DMSO.\nIn order to study the effect of key intermediates of the metabolic pathway leading to the sialylation of the glycoproteins and consequently to the conversion of Neu5Ac to Neu5Gc, a two factorial minimal resolution IV design, which allows for the estimation of the main effects, was established. Said design allowed the determination which of the components NAcMan, NAcGlc, Man, Fru, and Gal has/have an impact on the degree of sialylation and conversion of Neu5Ac to Neu5Gc. To confirm the results from the DOE findings, the production medium was enriched with 8.75 mM NAcMan and 8.75 mM NAcGlc in combination with manganese (Mn^2+) salts in different concentrations, e.g., in the concentrations mentioned earlier in this application.\nAt the end of the batch culture the cells were removed. The glycoproteins were purified from the remaining harvests by means of immuno-affinity chromatography. Briefly, up to 2 mg of each of the glycoproteins per ml of the chromatographic resin (20-500 ml of the harvest) were loaded onto the column. Elution of the glycoproteins was performed with 0.1 M Na-phosphate buffer, pH 2.5. By adding 1 M Na-phosphate buffer, pH 7.5 (made up by a combination of Na2H-phosphate and NaH2-phosphate), the pH of the eluate was immediately adjusted to 7 and then stored for further analysis at below −60° C.\nSialic acids (Neu5Gc, Neu5Ac, Neu-5,7Ac2, Neu5Gc9Ac, Neu-5,9Ac2, Neu-5,8,9Ac3) were differentiated using highly sensitive RP-HPLC. Enzymatic desialylation with neuraminidase (a2-3,6,8,9-neuraminidase (Sialidase) from Arthrobacter ureafaciens, Roche, USA) released sialic acids. The released sialic acids were labelled with the fluorescent dye 1,2-diamino-4,5-methylenedioxybenzene (DMB). DMB-labelling is non-selective and therefore provides a pool of labelled sialic acid derivates in stoichiometric amounts. Derivates of the DMB-labelled sialic acids were separated on an RP-HPLC column using isocratic elution. […]"}
{"smiles": "C[S+](C)[O-]", "note": "[DMSO, dimethyl sulfoxide]", "values": [{"measurement": "average Neu5Gc content for all glycoproteins tested", "setting": "0.25% DMSO", "value": 1.46, "unit": "%"}, {"measurement": "average Neu5Gc content for all glycoproteins tested", "setting": "0.5% DMSO", "value": 1.17, "unit": "%"}, {"measurement": "content of Neu5Gc lowered by", "setting": "0.75% (w/v) DMSO, 5 litre bioreactor batch, vs batch without DMSO", "value": "50-60%"}, {"measurement": "average Neu5Gc content for all glycoproteins tested", "setting": "0.75% DMSO", "value": 0.93, "unit": "%"}, {"measurement": "average Neu5Gc content for all glycoproteins tested", "setting": "1% DMSO", "value": 0.88, "unit": "%"}, {"measurement": "average Neu5Gc content for all glycoproteins tested", "setting": "1.25% DMSO", "value": 0.79, "unit": "%"}, {"measurement": "Neu5Gc content", "setting": "darbepoetin alfa, 0.75% (w/v) DMSO, FIG. 1b", "value": "about 0.9%"}, {"measurement": "content of Neu5Gc", "setting": "darbepoetin alfa, bioreactor batch process, 0.75% (w/v) DMSO", "value": "about 1%"}, {"measurement": "content of Neu5Gc", "setting": "darbepoetin alfa, shake flask batch process, 0.75% (w/v) DMSO", "value": "about 0.8%"}]}
